Experimental data taken from patent US20260013501A1, “HERBICIDAL DERIVATIVES” (SYNGENTA CROP PROTECTION AG, priority 2022, published 2026).

Assays:
Assay type in all cases: in vivo
[1] = test system: Ipomoea hederacea (IPOHE); assay: Pre-emergence Test (Table B1), IPOHE; settings: evaluated after 13 days
Zea mays (ZEAMX) [2] = assay: Pre-emergence Test (Table B1), ZEAMX; settings: evaluated after 13 days
[3] = test system: Echinochloa crus-galli (ECHCG); assay: Pre-emergence Test (Table B1), ECHCG; settings: evaluated after 13 days
Zea mays (ZEAMX) [4] = assay: Post-emergence Test (Table B2), ZEAMX; set-up: key: 5-point damage scale: 5=81-100%, 4=61-80%, 3=41-60%, 2=21-40%, 1=0-20%; settings: evaluated after 13 days
Description: (§1) Seeds of a variety of test species are sown in standard soil in pots (Ipomoea hederacea (IPOHE), Zea mays (ZEAMX), Echinochloa crus-galli (ECHCG), Amaranthus palmeri (AMAPA), (Amaranthus retoflexus (AMARE), and (Setaria faberi (SETFA)). After 8 days cultivation under controlled conditions in a glasshouse (at 24° C./16° C., day/night; 14 hours light; 65% humidity), the plants are sprayed with an aqueous spray solution derived from the formulation of the technical active ingredient in acetone/water (50:50) solution containing 0.5% Tween 20 (polyoxyethelyene sorbitan monolaurate, CAS RN 9005-64-5). Rate of application is shown in g/ha in the tables below. The test plants are then grown in a glasshouse under controlled conditions in a glasshouse (at 24° C./16° C., day/night; 14 hours light; 65% humidity) and watered twice daily. After 13 days the test is evaluated for the percentage damage caused to the plant. The biological activities are shown in the following table on a five-point scale (5=81-100%; 4=61-80%; 3=41-60%; 2=21-40%; 1=0-20%; -=not tested).

[5] = test system: Amaranthus palmeri (AMAPA); assay: Post-emergence Test (Table B2), AMAPA; set-up: key: five-point scale: 5=81-100%, 4=61-80%, 3=41-60%, 2=21-40%, 1=0-20% damage; settings: rate 250 g/Ha, evaluated after 13 days
Description: as §1

[6] = test system: Amaranthus palmeri (AMAPA); assay: Pre-emergence Test (Table B1), AMAPA; settings: evaluated after 13 days
[7] = test system: Amaranthus retoflexus (AMARE); assay: Pre-emergence Test (Table B1), AMARE; settings: evaluated after 13 days
[8] = test system: Echinochloa crus-galli (ECHCG); assay: Post-emergence Test (Table B2), ECHCG; set-up: key: 5-point damage scale: 5=81-100%, 4=61-80%, 3=41-60%, 2=21-40%, 1=0-20%; settings: evaluated after 13 days
Description: as §1

[9] = test system: Amaranthus retoflexus (AMARE); assay: Post-emergence Test (Table B2), AMARE; set-up: key: five-point scale: 5=81-100%, 4=61-80%, 3=41-60%, 2=21-40%, 1=0-20% damage; settings: evaluated after 13 days
Description: as §1

CCn1c(Cc2ncc(SC)cn2)cc(=O)c(C(=O)O)c1-c1ccc(Cl)c(Cl)c1 [Compound 99, 2-(3,4-dichlorophenyl)-1-ethyl-6-[(5-methylsulfanylpyrimidin-2-yl)methyl]-4-oxo-pyridine-3-carboxylic acid]
0: Pre-emergence Test, percentage damage caused to the plant (five-point scale), IPOHE ([1]; Rate 250 g/Ha) | Pre-emergence Test, percentage damage caused to the plant (five-point scale), ZEAMX (Zea mays (ZEAMX) [2]; Rate 250 g/Ha) | Pre-emergence Test, percentage damage caused to the plant (five-point scale), ECHCG ([3]; Rate 250 g/Ha)

CCn1c(Cc2cnc(C3CC3)nc2)cc(=O)c(C(=O)O)c1-c1ccc(Cl)c(Cl)c1 [Compound 151, 6-[(2-cyclopropylpyrimidin-5-yl)methyl]-2-(3,4-dichlorophenyl)-1-ethyl-4-oxo-pyridine-3-carboxylic acid]
0: Pre-emergence Test, percentage damage caused to the plant (five-point scale), IPOHE ([1]; Rate 250 g/Ha) | Pre-emergence Test, percentage damage caused to the plant (five-point scale), ZEAMX (Zea mays (ZEAMX) [2]; Rate 250 g/Ha) | Pre-emergence Test, percentage damage caused to the plant (five-point scale), ECHCG ([3]; Rate 250 g/Ha) | percentage damage caused to the plant, ZEAMX (Zea mays (ZEAMX) [4]; rate 250 g/Ha) | percentage damage caused to the plant, AMAPA [5]

CCn1c(Cc2ncccn2)cc(=O)c(C(=O)O)c1-c1ccc(Cl)c(Cl)c1 [Compound 22, 2-(3,4-dichlorophenyl)-1-ethyl-4-oxo-6-(pyrimidin-2-ylmethyl)pyridine-3-carboxylic acid]
0: Pre-emergence Test, percentage damage caused to the plant (five-point scale), ZEAMX (Zea mays (ZEAMX) [2]; Rate 250 g/Ha) | Pre-emergence Test, percentage damage caused to the plant (five-point scale), ECHCG ([3]; Rate 250 g/Ha) | Pre-emergence Test, percentage damage caused to the plant (five-point scale), AMAPA ([6]; Rate 250 g/Ha) | Pre-emergence Test, percentage damage caused to the plant (five-point scale), AMARE ([7]; Rate 250 g/Ha)

CCn1c(Cc2cc(OC)ccc2F)cc(=O)c(C(=O)O)c1-c1ccc(Cl)c(Cl)c1 [Compound 90, 2-(3,4-dichlorophenyl)-1-ethyl-6-[(2-fluoro-5-methoxy-phenyl)methyl]-4-oxo-pyridine-3-carboxylic acid]
0: Pre-emergence Test, percentage damage caused to the plant (five-point scale), ZEAMX (Zea mays (ZEAMX) [2]; Rate 1000 g/Ha) | Pre-emergence Test, percentage damage caused to the plant (five-point scale), AMAPA ([6]; Rate 1000 g/Ha) | Pre-emergence Test, percentage damage caused to the plant (five-point scale), AMARE ([7]; Rate 1000 g/Ha) | percentage damage caused to the plant, ZEAMX (Zea mays (ZEAMX) [4]; rate 1000 g/Ha) | percentage damage caused to the plant, ECHCG ([8]; rate 1000 g/Ha)

CCn1c(Cc2ccc(OC)nc2)cc(=O)c(C(=O)O)c1-c1ccc(Cl)c(Cl)c1 [Compound 40, 2-(3,4-dichlorophenyl)-1-ethyl-6-[(6-methoxy-3-pyridyl)methyl]-4-oxo-pyridine-3-carboxylic acid]
0: Pre-emergence Test, percentage damage caused to the plant (five-point scale), IPOHE ([1]; Rate 250 g/Ha) | Pre-emergence Test, percentage damage caused to the plant (five-point scale), ZEAMX (Zea mays (ZEAMX) [2]; Rate 250 g/Ha) | Pre-emergence Test, percentage damage caused to the plant (five-point scale), ECHCG ([3]; Rate 250 g/Ha) | percentage damage caused to the plant, ECHCG ([8]; rate 250 g/Ha)

CCn1c(Cc2ccccc2)cc(=O)c(C(=O)O)c1-c1ccc(Cl)c(Cl)c1 [Compound 3, 6-benzyl-2-(3,4-dichlorophenyl)-1-ethyl-4-oxo-pyridine-3-carboxylic acid]
0: Pre-emergence Test, percentage damage caused to the plant (five-point scale), IPOHE ([1]; Rate 1000 g/Ha) | Pre-emergence Test, percentage damage caused to the plant (five-point scale), ZEAMX (Zea mays (ZEAMX) [2]; Rate 1000 g/Ha) | Pre-emergence Test, percentage damage caused to the plant (five-point scale), ECHCG ([3]; Rate 1000 g/Ha) | percentage damage caused to the plant, AMARE ([9]; rate 1000 g/Ha)

CCn1c(Cc2ccc(C#N)c(F)n2)cc(=O)c(C(=O)O)c1-c1ccc(Cl)c(Cl)c1 [Compound 112, 6-[(5-cyano-6-fluoro-2-pyridyl)methyl]-2-(3,4-dichlorophenyl)-1-ethyl-4-oxo-pyridine-3-carboxylic acid]
0: Pre-emergence Test, percentage damage caused to the plant (five-point scale), IPOHE ([1]; Rate 62.5 g/Ha) | Pre-emergence Test, percentage damage caused to the plant (five-point scale), ZEAMX (Zea mays (ZEAMX) [2]; Rate 62.5 g/Ha) | Pre-emergence Test, percentage damage caused to the plant (five-point scale), ECHCG ([3]; Rate 62.5 g/Ha) | Pre-emergence Test, percentage damage caused to the plant (five-point scale), AMAPA ([6]; Rate 62.5 g/Ha) | Pre-emergence Test, percentage damage caused to the plant (five-point scale), AMARE ([7]; Rate 62.5 g/Ha)

CCn1c(Cc2nc(C(=O)OC)co2)cc(=O)c(C(=O)O)c1-c1ccc(Cl)c(Cl)c1 [Compound 148, 2-(3,4-dichlorophenyl)-1-ethyl-6-[(4-methoxycarbonyloxazol-2-yl)methyl]-4-oxo-pyridine-3-carboxylic acid]
0: Pre-emergence Test, percentage damage caused to the plant (five-point scale), IPOHE ([1]; Rate 250 g/Ha) | Pre-emergence Test, percentage damage caused to the plant (five-point scale), ZEAMX (Zea mays (ZEAMX) [2]; Rate 250 g/Ha) | Pre-emergence Test, percentage damage caused to the plant (five-point scale), ECHCG ([3]; Rate 250 g/Ha) | percentage damage caused to the plant, ZEAMX (Zea mays (ZEAMX) [4]; rate 250 g/Ha) | percentage damage caused to the plant, AMAPA [5]

CCn1c(Cc2cccc(C(C)=O)n2)cc(=O)c(C(=O)O)c1-c1ccc(Cl)c(Cl)c1 [Compound 116, 6-[(6-acetyl-2-pyridyl)methyl]-2-(3,4-dichlorophenyl)-1-ethyl-4-oxo-pyridine-3-carboxylic acid]
0: Pre-emergence Test, percentage damage caused to the plant (five-point scale), IPOHE ([1]; Rate 250 g/Ha) | percentage damage caused to the plant, AMAPA [5]

CCn1c(Cc2ccc(C(=O)OC)cn2)cc(=O)c(C(=O)O)c1-c1ccc(Cl)c(Cl)c1 [Compound 46, 2-(3,4-dichlorophenyl)-1-ethyl-6-[(5-methoxycarbonyl-2-pyridyl)methyl]-4-oxo-pyridine-3-carboxylic acid]
0: Pre-emergence Test, percentage damage caused to the plant (five-point scale), ZEAMX (Zea mays (ZEAMX) [2]; Rate 250 g/Ha) | percentage damage caused to the plant, ECHCG ([8]; rate 250 g/Ha)

CCn1c(Cc2ccc(S(C)(=O)=O)cc2)cc(=O)c(C(=O)O)c1-c1ccc(Cl)c(Cl)c1 [Compound 72, 2-(3,4-dichlorophenyl)-1-ethyl-6-[(4-methylsulfonylphenyl)methyl]-4-oxo-pyridine-3-carboxylic acid]
0: Pre-emergence Test, percentage damage caused to the plant (five-point scale), IPOHE ([1]; Rate 250 g/Ha) | Pre-emergence Test, percentage damage caused to the plant (five-point scale), ECHCG ([3]; Rate 250 g/Ha) | percentage damage caused to the plant, ZEAMX (Zea mays (ZEAMX) [4]; rate 250 g/Ha) | percentage damage caused to the plant, ECHCG ([8]; rate 250 g/Ha)

CCn1c(Cc2nccc(OC)n2)cc(=O)c(C(=O)O)c1-c1ccc(Cl)c(Cl)c1 [Compound 20, 2-(3,4-dichlorophenyl)-1-ethyl-6-[(4-methoxypyrimidin-2-yl)methyl]-4-oxo-pyridine-3-carboxylic acid]
0: Pre-emergence Test, percentage damage caused to the plant (five-point scale), ZEAMX (Zea mays (ZEAMX) [2]; Rate 250 g/Ha) | Pre-emergence Test, percentage damage caused to the plant (five-point scale), ECHCG ([3]; Rate 250 g/Ha) | Pre-emergence Test, percentage damage caused to the plant (five-point scale), AMAPA ([6]; Rate 250 g/Ha) | Pre-emergence Test, percentage damage caused to the plant (five-point scale), AMARE ([7]; Rate 250 g/Ha)

CCn1c(Cc2ccnc(C(F)(F)F)c2)cc(=O)c(C(=O)O)c1-c1ccc(Cl)c(Cl)c1 [Compound 21, 2-(3,4-dichlorophenyl)-1-ethyl-4-oxo-6-[[2-(trifluoromethyl)-4-pyridyl]methyl]pyridine-3-carboxylic acid]
0: percentage damage caused to the plant, AMAPA [5] | percentage damage caused to the plant, AMARE ([9]; rate 250 g/Ha)

CCn1c(Cc2ccc(OC(F)(F)F)cc2)cc(=O)c(C(=O)O)c1-c1ccc(Cl)c(Cl)c1 [Compound 26, 2-(3,4-dichlorophenyl)-1-ethyl-4-oxo-6-[[4-(trifluoromethoxy)phe-nyl]methyl]pyridine-3-carboxylic acid]
0: percentage damage caused to the plant, ZEAMX (Zea mays (ZEAMX) [4]; rate 1000 g/Ha) | percentage damage caused to the plant, ECHCG ([8]; rate 1000 g/Ha)

CCn1c(Cc2cc(=O)[nH]cn2)cc(=O)c(C(=O)O)c1-c1ccc(Cl)c(Cl)c1 [Compound 45, 2-(3,4-dichlorophenyl)-1-ethyl-4-oxo-6-[(6-oxo-1H-pyrimidin-4-yl)methyl]pyridine-3-carboxylic acid]
0: Pre-emergence Test, percentage damage caused to the plant (five-point scale), ZEAMX (Zea mays (ZEAMX) [2]; Rate 250 g/Ha) | Pre-emergence Test, percentage damage caused to the plant (five-point scale), ECHCG ([3]; Rate 250 g/Ha) | Pre-emergence Test, percentage damage caused to the plant (five-point scale), AMAPA ([6]; Rate 250 g/Ha) | Pre-emergence Test, percentage damage caused to the plant (five-point scale), AMARE ([7]; Rate 250 g/Ha) | percentage damage caused to the plant, ECHCG ([8]; rate 250 g/Ha)

CCn1c(Cc2nc(OC)cc(OC)n2)cc(=O)c(C(=O)O)c1-c1ccc(Cl)c(Cl)c1 [Compound 126, 2-(3,4-dichlorophenyl)-6-[(4,6-dimethoxypyrimidin-2-yl)methyl]-1-ethyl-4-oxo-pyridine-3-carboxylic acid]
0: Pre-emergence Test, percentage damage caused to the plant (five-point scale), ZEAMX (Zea mays (ZEAMX) [2]; Rate 250 g/Ha) | percentage damage caused to the plant, AMAPA [5] | percentage damage caused to the plant, AMARE ([9]; rate 250 g/Ha)

CCn1c(Cc2ccc(C(F)(F)F)cc2)cc(=O)c(C(=O)O)c1-c1ccc(Cl)c(Cl)c1 [Compound 6, 2-(3,4-dichlorophenyl)-1-ethyl-4-oxo-6-[[4-(trifluoromethyl)phenyl]methyl]pyridine-3-carboxylic acid]
0: Pre-emergence Test, percentage damage caused to the plant (five-point scale), IPOHE ([1]; Rate 1000 g/Ha) | Pre-emergence Test, percentage damage caused to the plant (five-point scale), ZEAMX (Zea mays (ZEAMX) [2]; Rate 1000 g/Ha) | Pre-emergence Test, percentage damage caused to the plant (five-point scale), ECHCG ([3]; Rate 1000 g/Ha)

CCn1c(Cc2cncc(Cl)n2)cc(=O)c(C(=O)O)c1-c1ccc(Cl)c(Cl)c1 [Compound 43, 6-[(6-chloropyrazin-2-yl)methyl]-2-(3,4-dichlorophenyl)-1-ethyl-4-oxo-pyridine-3-carboxylic acid]
0: Pre-emergence Test, percentage damage caused to the plant (five-point scale), ZEAMX (Zea mays (ZEAMX) [2]; Rate 250 g/Ha) | Pre-emergence Test, percentage damage caused to the plant (five-point scale), AMAPA ([6]; Rate 250 g/Ha) | percentage damage caused to the plant, AMAPA [5]
